Assay results from EP4631940A1, “COMPOUND TARGETING PAN-KRAS PROTEIN DEGRADATION AGENT AND USE THEREOF” (Betta Pharmaceuticals Co., Ltd., priority 2022, dated 2024).
Like-named read-outs stand apart in the source and are kept apart here.

Experiments:
AGS = experiment: Cell proliferation experiment (CellTiter-Glo); assay type: cell-based; conditions: read-out: IC50(nM) AGS
KRAS G12D = KRAS G12D (Homo sapiens, UniProt P01116, G12D)
[1] = AGS, KRAS mutation type G12D, 96 h incubation

Chain of KRAS G12D (P01116 1-188 isoform P01116-2 G12D): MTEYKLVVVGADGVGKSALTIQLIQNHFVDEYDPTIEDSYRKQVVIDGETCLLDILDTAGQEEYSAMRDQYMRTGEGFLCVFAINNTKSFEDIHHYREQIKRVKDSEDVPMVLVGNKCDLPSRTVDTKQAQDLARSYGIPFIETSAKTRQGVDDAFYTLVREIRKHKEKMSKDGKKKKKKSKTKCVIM

Row | Compound | IC50 (AGS) [nM] | IC50 (AGS; [1]) [nM] | also measured
1 | C=C1CN2[C@H](CN3CCC(c4cn([C@H](C(=O)N5C[C@H](O)C[C@H]5C(=O)N[C@@H](C)c5ccc(-c6scnc6C)cc5)C(C)C)nn4)CC3)CC[C@@]2(COc2nc(N3CCC[C@@](C)(O)C3)c3cnc(-c4cc(O)cc5ccc(F)c(CC)c45)c(F)c3n2)C1 [Compound 123] |  |  | IC50 (AGS; Homo sapiens, AGS, 96 h): 82 nM; DC50 (KRAS G12D): 122 nM
2 | C=C1CN2[C@H](COC(=O)N3CCN(c4cc([C@H](C(=O)N5C[C@H](O)C[C@H]5C(=O)N[C@@H](C)c5ccc(-c6scnc6C)cc5)C(C)C)on4)CC3)CC[C@@]2(COc2nc(N3CCC[C@@](C)(O)C3)c3cnc(-c4cc(O)cc5ccc(F)c(CC)c45)c(F)c3n2)C1 [Compound 110] | 52 |  | 
3 | (2S,4R)-1-((S)-2-(4-(1-((1-((1-(((7-(8-ethyl-7-fluoro-3-hydroxynaphthalen-1-yl)-8-fluoro-4-((R)-3-hydroxy-3-methylpiperidin-1-yl)pyrido[4,3-d]pyrimidin-2-yl)oxy)methyl)piperidin-4-yl)methy l)azetidin-3-yl)-1H-1,2,3-triazol-1-yl)-3-methylbutanoyl)-4-hydroxy-N-((S)-1-(4-(4-methylthiaz ol-5-yl)phenyl)ethyl)pyrrolidine-2-carboxamide [Compound 129] |  | 37 | 
4 | (2S,4R)-1-((S)-2-(4-(5-(1-((1-((7-(8-ethyl-7-fluoro-3-hydroxynaphthalen-1-yl)-8-fluoro-4-((R)-3 -hydroxy-3-methylpiperidin-1-yl)pyrido[4,3-d]pyrimidin-2-yl)oxy)methyl)cyclopropyl)methyl)p iperidin-4-yl)oxy)pyrimidin-2-yl)-1H-1,2,3-triazol-1-yl)-3-methylbutanoyl)-4-hydroxy-N-((S)-1-(4-hydroxyl-N-(4-(4-methylthiazol-5-yl)phenyl)ethyl)pyrrolidine-2-carboxamide [Compound 169] |  | 20 | 
5 | CCc1c(F)ccc2cc(O)cc(-c3ncc4c(N5CCC[C@@](C)(O)C5)nc(OCC5(CN6CCC(Oc7ccc(-c8cn([C@H](C(=O)N9C[C@H](O)C[C@H]9C(=O)N[C@@H](C)c9ccc(-c%10scnc%10C)cc9)C(C)C)nn8)nn7)CC6)CC5)nc4c3F)c12 [Compound 167] |  | 8.8 | 
6 | (2S,4R)-1-((S)-2-(4-(3-((1-((1-((7-(8-ethyl-7-fluoro-3-hydroxynaphthalen-1-yl)-8-fluoro-4-((R)-3-hydroxy-3-methylpiperidin-1-yl)pyrido[4,3-d]pyrimidin-2-yl)oxy)methyl)cyclopropyl)methyl) piperidin-4-yl)methyl)amino)bicyclo[1.1.1]pent-1-yl)-1H-1,3-triazol-1-yl)-3-methylbutanoyl)-4-hydroxy-N-((S)-1-(4-(4-methylthiazol-5-yl)phenyl)ethyl)pyrrolidine-2-carboxamide [Compound 180] |  | 20 | 
7 | CCc1c(F)ccc2cc(O)cc(-c3ncc4c(N5CCC[C@@](C)(O)C5)nc(OCC5(CN6CCN(C7CC(c8cn([C@H](C(=O)N9C[C@H](O)C[C@H]9C(=O)N[C@@H](C)c9ccc(-c%10scnc%10C)cc9)C(C)C)nn8)C7)CC6)CC5)nc4c3F)c12 (stereo partly drawn) [Compound 165, (2S,4R)-1-((S)-2-(4-(3-(4-((1-(((7-(8-ethyl-7-fluoro-3-hydroxynaphthalen-1-yl)-8-fluoro-4-((R)-3-hydroxy-3-methylpiperidin-1-yl)pyrido[4,3-d]pyrimidin-2-yl)oxy)methyl)cyclopropyl)methyl)piperazin-1-yl)cyclobutyl)-1H-1,2,3-triazol-1-yl)-3-methylbutanoyl)-4-hydroxy-N-((S)-1-(4-(4-methylthiazol-5-yl)phenyl)ethyl)pyrrolidine-2-carboxamide] |  |  | IC50 (AGS; Homo sapiens, AGS, 96 h): 9.2 nM
8 | CCc1c(F)ccc2cc(O)cc(-c3ncc4c(N5CCC[C@@](C)(O)C5)nc(OCC5(CN6CCC(Oc7ccc(-c8cn([C@H](C(=O)N9C[C@H](O)C[C@H]9C(=O)N[C@@H](CO)c9ccc(-c%10scnc%10C)cc9)C(C)C)nn8)cn7)CC6)CC5)nc4c3F)c12 [Compound 171] |  | 13 | 
9 | CCc1c(F)ccc2cc(O)cc(-c3ncc4c(N5CCC[C@@](C)(O)C5)nc(OCC5(CN6CCC(Oc7cnc(-c8cn([C@H](C(=O)N9C[C@H](O)C[C@H]9C(=O)N[C@@H](CO)c9ccc(-c%10ccnn%10CC)cc9)C(C)C)nn8)cn7)CC6)CC5)nc4c3F)c12 [Compound 172] | 3.6 |  | 
10 | (2S,4R)-1-((S)-2-(4-(5-(7-((7-(8-ethyl-7-fluoro-3-hydroxynaphthalen-1-yl)-8-fluoro-4-((R)-3-hy droxy-3-methylpiperidin-1-yl)pyrido[4,3-d]pyrimidin-2-yl)oxy)methyl)cyclopropyl)methyl)-2,7-azaspiro[3.5]nonan-2-yl)pyrazin-2-yl)-1H-1,2,3-triazol-1-yl)-3-methylbutanoyl)-4-hydroxy-N-(( S)-1-(4-methylthiazol-5-yl)phenyl)ethyl)pyrrolidine-2-carboxamide [Compound 168] |  | 5.6 | 
11 | (2S,4R)-1-((S)-2-(4-(5-((4-((1-(((7-(8-ethyl-7-fluoro-3-hydroxynaphthalen-1-yl)-8-fluoro-4-((R)-3-hydroxy-3-methylpiperidin-1-yl)pyrido[4,3-d]pyrimidin-2-yl)oxy)methyl)cyclopropyl)methyl) piperazin-1-yl)methyl)piperazin-3-yl)-1H-1,2,3-triazol-1-yl)-3-methylbutanoyl)-4-hydroxy-N-((S )-1-(4-(4-methylthiazol-5-yl)phenyl)ethyl)pyrrolidine-2-carboxamide [Compound 177] | 4.2 |  | 
12 | (3S,7aS)-7a-((7-(7-(8-ethyl-7-fluoro-3-hydroxynaphthalen-1-yl)-8-fluoro-4-((R)-3-hydroxy-3-m ethylpiperidin-1-yl)pyrido[4,3-d]pyrimidin-2-yl)pyrimidin-2-yl)oxy)methyl)-6-methylenehexahy dro-1H-pyrrolizin-3-yl)methyl-4-(((5-(R)-1-(2S,4R)-4-hydroxy-2-(((S)-1-(4-(4-methylthiazol-5-yl)phenyl)ethyl)carbamoyl)pyrrolidin-1-yl)-3-methyl-1-oxobutan-2-yl)isoxazol-3-yl)oxy)methyl )piperidine-1-carboxylate [Compound 125] |  | 52 | 
13 | C#Cc1c(F)ccc2cc(O)cc(-c3ncc4c(N5CCCOCC5)nc(OC[C@]56CCCN5[C@@H](COC(=O)N5CCC7(CC5)CC(C(=O)N[C@H](C(=O)N5C[C@H](O)C[C@H]5C(=O)N[C@@H](C)c5ccc(-c8scnc8C)cc5)C(C)(C)C)C7)CC6)nc4c3F)c12 [Compound 90] | 83 |  | 
14 | (2S,4R)-1-((S)-2-(4-(5-((((3R,7aR)-7a-(((7-(8-ethyl-7-fluoro-3-hydroxynaphthalen-1-yl)-8-fluor o-4-((R)-3-hydroxy-3-methylpiperidin-l-yl)pyrido[4,3-d]pyrimidin-2-yl)oxy)methyl)hexahydro-1H-pyrrolizin-3-yl)methoxy)pyrazin-2-yl)-1H-1,2,3-triazol-1-yl)-3-methylbutanoyl)-4-hydroxy-N-((S)-1-(4-(4-methylthiazol-5-yl)phenyl)ethyl)pyrrolidine-2-carboxamide [Compound 188] |  | 12 | 
15 | (2S,4R)-1-((S)-2-(4-(6-((4-((1-(((7-(8-ethyl-7-fluoro-3-hydroxynaphthalen-1-yl)-8-fluoro-4-((R)-3-hydroxy-3-methylpiperidin-1-yl)pyrido[4,3-d]pyrimidin-2-yl)oxy)methyl)cyclopropyl)methyl) pyridin-1-yl)methyl)pyridin-3-yl)-1H-1,2,3-triazol-1-yl)-3-methylbutanoyl)-4-hydroxy-N-((S)-1-(4-(4-methylthiazol-5-yl)phenyl)ethyl)pyrrolidine-2-carboxamide [Compound 179] | 27 |  | 
16 | CCc1c(F)ccc2cc(O)cc(-c3ncc4c(N5CCC[C@@](C)(O)C5)nc(OCC5(CN6CCC(Oc7ncc(-c8cn([C@H](C(=O)N9C[C@H](O)C[C@H]9C(=O)N[C@@H](C)c9ccc(-c%10scnc%10C)cc9)C(C)C)nn8)s7)CC6)CC5)nc4c3F)c12 [Compound 181] |  | 11 | 
17 | CCc1c(F)ccc2cc(O)cc(-c3ncc4c(N5CCC[C@@](C)(O)C5)nc(OCC5(CN6CCN(Cc7cnc(-c8cn([C@H](C(=O)N9C[C@H](O)C[C@H]9C(=O)N[C@@H](C)c9ccc(-c%10scnc%10C)cc9)C(C)C)nn8)s7)CC6)CC5)nc4c3F)c12 [Compound 187] |  | 7.5 | 
18 | CCc1c(F)ccc2cc(O)cc(-c3ncc4c(N5CCC[C@@](C)(O)C5)nc(OCC5(CN6CCN(C7CCN(c8cc([C@H](C(=O)N9C[C@H](O)C[C@H]9C(=O)N[C@H](C)c9ccc(-c%10scnc%10C)cc9)C(C)C)on8)CC7)CC6)CC5)nc4c3F)c12 [Compound 164] |  | 38 | 
19 | CCc1c(F)ccc2cc(O)cc(-c3ccc4c(N5CCC[C@@](C)(O)C5)nc(OCC5(CN6CCC7(CC6)CN(c6cnc(-c8cn([C@H](C(=O)N9C[C@H](O)C[C@H]9C(=O)N[C@@H](C)c9ccc(-c%10scnc%10C)cc9)C(C)C)nn8)cn6)C7)CC5)nc4c3F)c12 [Compound 186] |  | 20 | 
20 | (2S,4R)-1-((S)-2-(4-(1-((1-((1-(((7-(8-ethyl-7-fluoro-3-hydroxynaphthalen-1-yl)-8-fluoro-4-((R)-3-hydroxy-3-methylpiperidin-1-yl)pyrido[4,3-d]pyrimidin-2-yl)oxy)methyl)cyclopropyl)methyl) piperidin-4-yl)methyl)-1H-pyrazol-4-yl)-1H-1,2,3-triazol-1-yl)-3-methylbutanoyl)-4-hydroxy-N-((S)-1-(4-(4-methylthiazol-5-yl)phenyl)ethyl)pyrrolidine-2-carboxamide [Compound 182] | 24 |  | 
21 | (2S,4R)-1-((S)-2-(4-(6-((1-((1-(((7-(8-ethyl-7-fluoro-3-hydroxynaphthalen-1-yl)-8-fluoro-4-((R)-3-hydroxy-3-methylpiperidin-1-yl)pyrido[4,3-d]pyrimidin-2-yl)oxy)methyl)cyclopropyl)methyl) -4-methylpiperidin-4-yl)oxy)piperidin-3-yl)-1H-1,2,3-triazol-1-yl)-3-methylbutanoyl)-4-hydroxy -N-((S)-1-(4-(4-methylthiazol-5-yl)phenyl)ethyl)pyrrolidine-2-carboxamide [Compound 176] | 33 |  | 
